These results are taken from article PMC6812009, “Covalent Aurora A regulation by the metabolic integrator coenzyme A” (Redox Biology, 2019).

Common to all, as to assay: Kinase profiling screen (radioactive filter-binding assay)
Type in all cases: biochemical

One assay concerns the target CAMK1 (Homo sapiens, UniProt Q14012). The following applies: 100 μM compound, 50 μM ATP; read-out: Kinase activity, % of activity in the absence of inhibitor. The protocol: (§1) Profiling of 117 protein kinases with CoA, dpCoA and ADP was carried out at the International Centre for Protein Kinase Profiling at the University of Dundee. Each compound was tested in vitro, in duplicate, at 100 μM final concentration using recombinant kinases, model substrates and optimal concentrations of ATP. Bacterially expressed full-length His-Aurora A was used to determine the IC50 value for CoA (in the presence or absence of DTT), dpCoA, ADP and desulfo-CoA. The assay was performed in the presence of 5 μM competing ATP. To examine whether the inhibitory effect of CoA on Aurora A is modulated by TPX2, IC50 values for CoA were also generated in the presence and absence of 1 μg TPX2 (residues 1–43) fragment.

The next assay has as its target GSK3β (Homo sapiens, UniProt P49841). The settings on record: 100 μM compound, 5 μM ATP; read-out: Kinase activity, % of activity in the absence of inhibitor. The protocol:
as §1

A further assay has as its target T1, IRAK4 (Homo sapiens, UniProt Q9NWZ3).
T1 sequence (Q9NWZ3 1-460): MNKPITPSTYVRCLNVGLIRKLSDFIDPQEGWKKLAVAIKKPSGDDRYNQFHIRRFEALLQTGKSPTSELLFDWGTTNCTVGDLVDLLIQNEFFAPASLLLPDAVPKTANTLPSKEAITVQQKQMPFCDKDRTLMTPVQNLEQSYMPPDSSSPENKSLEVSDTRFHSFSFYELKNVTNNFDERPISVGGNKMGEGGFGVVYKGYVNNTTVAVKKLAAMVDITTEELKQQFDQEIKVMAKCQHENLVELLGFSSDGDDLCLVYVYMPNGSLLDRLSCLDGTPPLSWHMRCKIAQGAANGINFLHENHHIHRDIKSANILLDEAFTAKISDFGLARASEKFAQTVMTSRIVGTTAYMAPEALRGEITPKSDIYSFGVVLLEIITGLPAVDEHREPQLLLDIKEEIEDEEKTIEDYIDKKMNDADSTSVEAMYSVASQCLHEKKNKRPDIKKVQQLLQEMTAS
The settings on record: 100 μM compound, 20 μM ATP; read-out: Kinase activity, % of activity in the absence of inhibitor. The protocol:
as §1

In the next assay the target is T2, MARK4 (Homo sapiens, UniProt Q96L34).
T2 sequence (Q96L34 1-752): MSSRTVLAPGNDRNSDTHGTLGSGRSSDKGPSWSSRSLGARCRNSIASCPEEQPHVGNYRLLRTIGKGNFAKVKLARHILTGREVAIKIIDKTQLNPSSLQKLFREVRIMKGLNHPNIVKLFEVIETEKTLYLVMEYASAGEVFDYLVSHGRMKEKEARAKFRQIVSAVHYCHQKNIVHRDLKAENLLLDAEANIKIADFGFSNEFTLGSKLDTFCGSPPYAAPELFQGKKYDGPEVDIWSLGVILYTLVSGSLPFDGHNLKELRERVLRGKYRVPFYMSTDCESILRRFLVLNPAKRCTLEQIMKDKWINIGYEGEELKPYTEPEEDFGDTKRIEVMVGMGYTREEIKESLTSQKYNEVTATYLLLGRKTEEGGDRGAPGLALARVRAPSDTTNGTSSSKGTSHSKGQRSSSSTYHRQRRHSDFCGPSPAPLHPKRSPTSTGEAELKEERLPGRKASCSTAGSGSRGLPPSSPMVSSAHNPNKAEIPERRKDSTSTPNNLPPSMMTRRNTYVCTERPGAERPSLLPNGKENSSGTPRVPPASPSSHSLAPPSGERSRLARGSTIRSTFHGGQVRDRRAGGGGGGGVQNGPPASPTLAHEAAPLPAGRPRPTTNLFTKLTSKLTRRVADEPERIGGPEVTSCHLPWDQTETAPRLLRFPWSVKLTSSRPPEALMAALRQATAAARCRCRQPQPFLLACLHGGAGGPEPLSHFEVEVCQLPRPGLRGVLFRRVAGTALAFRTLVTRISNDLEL
The settings on record: 100 μM compound, 50 μM ATP; read-out: Kinase activity, % of activity in the absence of inhibitor. The protocol: as §1

GSK3β, sequence (P49841 whole entry): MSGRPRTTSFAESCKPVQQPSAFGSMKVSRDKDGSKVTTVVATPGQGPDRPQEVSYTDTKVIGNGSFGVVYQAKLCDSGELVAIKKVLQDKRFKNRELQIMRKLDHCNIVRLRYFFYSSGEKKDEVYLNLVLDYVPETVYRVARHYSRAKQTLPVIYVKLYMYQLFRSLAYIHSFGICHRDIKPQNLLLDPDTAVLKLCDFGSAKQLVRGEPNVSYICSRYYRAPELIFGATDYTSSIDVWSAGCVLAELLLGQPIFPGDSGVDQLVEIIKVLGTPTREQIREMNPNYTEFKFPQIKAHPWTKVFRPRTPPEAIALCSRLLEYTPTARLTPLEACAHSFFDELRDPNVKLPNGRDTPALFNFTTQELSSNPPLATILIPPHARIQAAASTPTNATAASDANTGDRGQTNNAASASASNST

For `Nc1ncnc2c1ncn2C1OC(COP(=O)(O)OP(=O)(O)O)C(O)C1O` (stereo not drawn) [ADP], the activity at 100 µM at CAMK1 is 80.1%; at GSK3β, 18.2%; on IRAK4, 82.1%; on MARK4, 49.1%.

Turning to `CC(C)(COP(=O)(O)OP(=O)(O)OC[C@H]1O[C@@H](n2cnc3c(N)ncnc32)[C@H](O)[C@@H]1OP(=O)(O)O)[C@@H](O)C(=O)NCCC(=O)NCCS` [CoA, Coenzyme A], the activity at 100 µM was 124% at CAMK1, 94.7% at GSK3β, 89.1% at IRAK4 and 87.7% on MARK4.

For `CC(C)(COP(=O)(O)OP(=O)(O)OCC1OC(n2cnc3c(N)ncnc32)C(O)C1O)C(O)C(=O)NCCC(=O)NCCS` (stereo not drawn) [dpCoA, dephospho-CoA], the activity at 100 µM on CAMK1 turned out to be 126%; at GSK3β, 72.1%; on IRAK4, 74.8%; at MARK4, 86.6%.
